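A five-concentration, 48-hour dose response in 96-well plates underlies each endpoint, interpolated linearly between surrounding concentrations. Abbreviation: GI50, concentration required for 50% inhibition of growth. TGI marks complete inhibition of growth.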
What was measured:
Test in all cases: NCI-60 cell line screen, 48 h
OVCAR-4 ovarian = test system: OVCAR-4 ovarian
HCT-15 colon = test system: HCT-15 colon
RXF 393 renal = test system: RXF 393 renal
CAKI-1 renal = test system: CAKI-1 renal
OVCAR-8 ovarian = test system: OVCAR-8 ovarian
ACHN renal = test system: ACHN renal
MCF7 breast = test system: MCF7 breast
NCI-H226 lung = test system: NCI-H226 lung
SF-268 CNS = test system: SF-268 CNS
HCC-2998 colon = test system: HCC-2998 colon

Structure (SMILES) | GI50 (OVCAR-4 ovarian) | TGI (OVCAR-4 ovarian) | GI50 (HCT-15 colon) | TGI (HCT-15 colon) | GI50 (RXF 393 renal) | TGI (RXF 393 renal) | GI50 (CAKI-1 renal) | TGI (CAKI-1 renal) | GI50 (OVCAR-8 ovarian) | TGI (OVCAR-8 ovarian) | GI50 (ACHN renal) | TGI (ACHN renal) | GI50 (MCF7 breast) | TGI (MCF7 breast) | GI50 (NCI-H226 lung) | TGI (NCI-H226 lung) | GI50 (SF-268 CNS) | TGI (SF-268 CNS) | GI50 (HCC-2998 colon) | TGI (HCC-2998 colon)
S=c1snc2n1CCN2 | > 100 µM | > 100 µM | > 100 µM | > 100 µM | > 100 µM | > 100 µM | > 100 µM | > 100 µM | > 100 µM | > 100 µM | > 100 µM | > 100 µM | 39.3 µM | > 100 µM | 32.3 µM | > 100 µM | > 100 µM | > 100 µM | 19.3 µM | 74.7 µM
CN(CCCCCl)P(=O)(OCCS(=O)(=O)CC(NC(=O)CCC(N)C(=O)O)C(=O)NC(C(=O)O)c1ccccc1)OCC1OC(n2ccc(N)nc2=O)C(F)(F)C1O (centres undefined) | > 100 µM | > 100 µM | 8.92 µM | > 100 µM | 0.744 µM | > 45.1 µM | 0.0438 µM | 5.8 µM | < 0.0172 µM | > 100 µM |  | > 33.8 µM |  | > 100 µM | 8.03 µM | > 93.3 µM | 0.337 µM | > 100 µM | 24.5 µM | > 100 µM
CC(=O)c1ccc2c(c1)C1C=CCC1[C@H](c1cc3c(cc1Br)OCO3)N2 (some centres undefined) | 1.63 µM | > 50.2 µM | 1.24 µM | 20.6 µM | 1.85 µM | 3.35 µM | 0.512 µM | 20.5 µM | 1.63 µM | 13 µM | 1.63 µM | 22.1 µM | 0.368 µM | 18.9 µM | 1.74 µM | > 32.6 µM | 0.67 µM | 19.1 µM | 3.84 µM | 10.6 µM
NS(=O)(=O)c1ccc(-n2nc3c(c2-c2ccc(Cl)cc2)Cc2ccccc2-3)cc1 | 15 µM | 30.3 µM | 19.7 µM | 38.4 µM | 17 µM | 34.4 µM | 17.5 µM | 31.6 µM | 21.6 µM | 44 µM | 19.8 µM | 34.6 µM | 22.9 µM | 54.8 µM | 16.8 µM | 35.4 µM | 22.4 µM | 50.4 µM | 18.3 µM | 35.7 µM
COc1ccc(-c2ccncc2)cc1C(N)=O | > 25 µM | > 25 µM | > 25 µM | > 25 µM | > 25 µM | > 25 µM | > 25 µM | > 25 µM | > 25 µM | > 25 µM | > 25 µM | > 25 µM | > 25 µM | > 25 µM | > 25 µM | > 25 µM | > 25 µM | > 25 µM | > 25 µM | > 25 µM
C[C@@H]1C[C@H](C)CN(S(=O)(=O)c2ccc3c(NO)c4ccc(S(=O)(=O)N5C[C@H](C)C[C@H](C)C5)cc4c(N=O)c3c2)C1 | 0.17 µM | 0.346 µM | 0.0717 µM | 0.211 µM | 0.158 µM | 0.299 µM | 0.335 µM | > 1 µM | 0.232 µM | 0.527 µM | 0.143 µM | 0.293 µM | 0.176 µM | 0.357 µM | 0.157 µM | 0.364 µM | 0.0252 µM | 0.0698 µM | 0.122 µM | 0.265 µM
O=S(=O)(NC1=NCCN1C(=S)SN1CCn2c1nsc2=S)c1cccc2ccccc12 | 29.2 µM | > 100 µM | 26.3 µM | > 100 µM | 10.5 µM | 67.2 µM | 22.8 µM | 69.7 µM | 17.5 µM | 43.8 µM | 27.5 µM | > 100 µM | 7.27 µM | 58 µM | 30.6 µM | > 100 µM | 23.3 µM | > 100 µM | 21.4 µM | 53.2 µM
O=C(/C=C/C12c3ccccc3C(c3ccccc31)C1C(=O)NC(=O)C12)c1ccc(Cl)cc1Cl (centres undefined) | 1.86 µM | 3.82 µM | 1.9 µM | 4.57 µM | 1.73 µM | 3.22 µM | 1.57 µM | 3.05 µM | 1.88 µM | 3.98 µM | 1.76 µM | 3.15 µM | 1.72 µM | 3.79 µM | 2.14 µM | 5.91 µM | 1.79 µM | 3.44 µM | 1.81 µM | 3.41 µM
COC(=O)C1C(O)CCC2CN3CCc4c([nH]c5ccccc45)C3CC21 (centres undefined) | > 100 µM | > 100 µM |  | > 100 µM |  | > 100 µM | > 100 µM | > 100 µM |  | > 100 µM | > 100 µM | > 100 µM |  | > 100 µM |  | > 100 µM |  | > 100 µM |  | > 100 µM
CC(C)c1c(-c2ccccc2)nc2c(C#N)c[nH]n2c1=O | 25.6 µM | > 90 µM | 31.8 µM | > 100 µM | 29.3 µM | > 93.4 µM | 31.2 µM | > 100 µM | 32.2 µM | > 100 µM | 30.6 µM | > 90.9 µM | 26.2 µM | > 91.5 µM | 27 µM | > 87.7 µM | 28.8 µM | > 100 µM | 29 µM | > 100 µM
COc1cc(F)c(F)c(Nc2ccc(I)cc2F)c1NS(=O)(=O)C1(C[C@H](O)CO)CC1 | 3.44 µM | > 10 µM | 1.67 µM | > 10 µM | 1.05 µM | > 9.5 µM | 0.44 µM | > 10 µM | > 6.48 µM | > 10 µM | 0.897 µM | > 10 µM | > 5.31 µM | > 10 µM | > 3.42 µM | > 10 µM | 5.72 µM | > 10 µM | 0.0206 µM | > 4.24 µM
O=C(O)c1ccc(NCn2nc(-c3ccccc3O)oc2=S)cc1 |  |  | 24.9 µM | 57.5 µM | 67.9 µM | > 100 µM | > 100 µM | > 100 µM | > 100 µM | > 100 µM | 27.7 µM | 72 µM | 49.1 µM | > 100 µM | > 100 µM | > 100 µM | 96.4 µM | > 100 µM | 29.2 µM | 93.7 µM
